Reference: patent US9161536B2, “Herbicidal compositions comprising 4-amino-3-chloro-6-(4-chloro-2-fluoro-3-methoxyphenyl)-5-fluoropyridine-2-carboxylic acid or a derivative thereof and flurtamone, diflufenican, or picolinafen” (Dow AgroSciences LLC, priority 2012, dated 2015)

Columns and labels:
Type in all cases: in vivo
[1] = test system: Stellaria media (L.) Vill., common chickweed (STEME); assay: greenhouse trial, foliar applied compositions, STEME
Text: (§1) More specifically, the following equation is used to calculate the expected activity of mixtures containing two herbicical active ingredients: Expected=A+B−(A×B/100) • A=observed efficacy of a first active ingredient at the same concentration as used in the mixture; • B=observed efficacy of the second active ingredient (or product, which may be a combination of active ingredients) at the same concentration as used in the mixture.
In some embodiments, the methods provided herein are utilized to control undesirable vegetation in cereals. In certain embodiments, the undesirable vegetation is Alopecurus myosuroides Huds. (blackgrass, ALOMY), Apera spica venti (L.) Beauv. (windgrass, APESV), Avena fatua L. (wild oat, AVEFA), Bromus tectorum L. (downy brome, BROTE), Lolium multiflorum Lam. (Italian ryegrass, LOLMU), Lolium rigidum (rigid ryegrass), Lolium multiflorum subsp. Gaudini (annual ryegrass, LOLMG), Phalaris minor Retz. […]
(§2) • g/ha=grams acid equivalent per hectare (g ae/ha) for Cmpd 1 and grams active ingredient per hectare (g ai/ha) for diflufenican, picolinafen, BACARA® and BACARA® FORTE • Obs=observed value • Exp=expected value as calculated by the equations set forth above in paragraph [0024]. • Cmpd 1=benzyl 4-amino-3-chloro-6-(4-chloro-2-fluoro-3-methoxyphenyl)-5-fluoropyridine-2-carboxylate

[2] = test system: Kochia scoparia (L.) Schrad., kochia (KCHSC); assay: greenhouse trial, foliar applied compositions, KCHSC
Text: as §1
(§3) Results in Tables 1-8 are greenhouse trial results for foliar applied compositions.
as §2

[3] = test system: Veronica persica Poir., Persian speedwell (VERPE); assay: greenhouse trial, foliar applied compositions, VERPE
Text: as §1, §3, §2

[4] = test system: Salsola tragus L., Russian thistle (SASKR); assay: greenhouse trial, foliar applied compositions, SASKR
Text: as §1, §3, §2

[5] = test system: Hordeum vulgare L., spring barley (HORVS); assay: greenhouse trial, foliar applied compositions, HORVS
Text: as §1, §3, §2

[6] = test system: Chenpodium album L., common lambsquarters (CHEAL); assay: greenhouse trial, foliar applied compositions, CHEAL
Text: as §1, §3, §2

[7] = test system: Papaver rhoeas L., common poppy (PAPRH); assay: greenhouse trial, foliar applied compositions, PAPRH
Text: as §1, §3, §2

[8] = test system: Galium aparine L., catchweed bedstraw (GALAP); assay: greenhouse trial, foliar applied compositions, GALAP
Text: as §1, §3, §2

[9] = test system: Viola tricolor L., wild violet (VIOTR); assay: greenhouse trial, foliar applied compositions, VIOTR
Text: as §1, §3, §2

[10] = test system: Sinapis arvensis L., wild mustard (SINAR); assay: greenhouse trial, foliar applied compositions, SINAR
Text: as §1, §3, §2

[11] = test system: Triticum aestivum (spring), spring wheat (TRZAS); assay: greenhouse trial, foliar applied compositions, TRZAS
Text: as §1, §3, §2

[12] = test system: Cirsium arvense (L.) Scop., Canada thistle (CIRAR); assay: greenhouse trial, foliar applied compositions, CIRAR
Text: as §1, §3, §2

[13] = test system: Matricaria recutita L., wild chamomile (MATCH); assay: greenhouse trial, foliar applied compositions, MATCH
Text: as §1, §3, §2

[14] = test system: Lamium purpureum L., purple deadnettle (LAMPU); assay: greenhouse trial, foliar applied compositions, LAMPU
Text: as §1, §3, §2

COc1c(Cl)ccc(-c2nc(C(=O)OCc3ccccc3)c(Cl)c(N)c2F)c1F [Cmpd 1, benzyl 4-amino-3-chloro-6-(4-chloro-2-fluoro-3-methoxyphenyl)-5-fluoropyridine-2-carboxylate]
STEME Obs ([1]; Cmpd 1 2.5 g ae/ha alone): 20
STEME Obs ([1]; Cmpd 1 5 g ae/ha alone): 30
KCHSC Obs ([2]; Cmpd 1 2.5 g ae/ha alone): 20
KCHSC Obs ([2]; Cmpd 1 5 g ae/ha alone): 40
VERPE Obs ([3]; Cmpd 1 2.5 g ae/ha alone): 0
VERPE Obs ([3]; Cmpd 1 5 g ae/ha alone): 5
SASKR Obs ([4]; Cmpd 1 2.5 g ae/ha alone): 10
SASKR Obs ([4]; Cmpd 1 5 g ae/ha alone): 60
HORVS Obs ([5]; Cmpd 1 2.5 g ae/ha alone): 0
HORVS Obs ([5]; Cmpd 1 5 g ae/ha alone): 0
CHEAL Obs ([6]; Cmpd 1 2.5 g ae/ha alone): 50
CHEAL Obs ([6]; Cmpd 1 5 g ae/ha alone): 60
PAPRH Obs ([7]; Cmpd 1 2.5 g ae/ha alone): 20
PAPRH Obs ([7]; Cmpd 1 5 g ae/ha alone): 70
GALAP Obs ([8]; Cmpd 1 2.5 g ae/ha alone): 60
GALAP Obs ([8]; Cmpd 1 5 g ae/ha alone): 60
VIOTR Obs ([9]; Cmpd 1 2.5 g ae/ha alone): 10
VIOTR Obs ([9]; Cmpd 1 5 g ae/ha alone): 10
SINAR Obs ([10]; Cmpd 1 2.5 g ae/ha alone): 60
SINAR Obs ([10]; Cmpd 1 5 g ae/ha alone): 70
TRZAS Obs ([11]; Cmpd 1 2.5 g ae/ha alone): 0
TRZAS Obs ([11]; Cmpd 1 5 g ae/ha alone): 5
CIRAR Obs ([12]; Cmpd 1 2.5 g ae/ha alone): 10
CIRAR Obs ([12]; Cmpd 1 5 g ae/ha alone): 20
MATCH Obs ([13]; Cmpd 1 2.5 g ae/ha alone): 0
MATCH Obs ([13]; Cmpd 1 5 g ae/ha alone): 10
LAMPU Obs ([14]; Cmpd 1 2.5 g ae/ha alone): 80
LAMPU Obs ([14]; Cmpd 1 5 g ae/ha alone): 80

O=C(Nc1ccc(F)cc1F)c1cccnc1Oc1cccc(C(F)(F)F)c1 [Diflufenican, N-(2,4-difluorophenyl)-2-[3-(trifluoromethyl)phenoxy]-3-pyridinecarboxamide]
KCHSC Obs ([2]; Diflufenican 50 g ai/ha alone): 40
VERPE Obs ([3]; Diflufenican 50 g ai/ha alone): 10
SASKR Obs ([4]; Diflufenican 50 g ai/ha alone): 70
HORVS Obs ([5]; Diflufenican 50 g ai/ha alone): 5
CHEAL Obs ([6]; Diflufenican 50 g ai/ha alone): 10
PAPRH Obs ([7]; Diflufenican 50 g ai/ha alone): 0
GALAP Obs ([8]; Diflufenican 50 g ai/ha alone): 0
VIOTR Obs ([9]; Diflufenican 50 g ai/ha alone): 15
SINAR Obs ([10]; Diflufenican 50 g ai/ha alone): 30
TRZAS Obs ([11]; Diflufenican 50 g ai/ha alone): 5
CIRAR Obs ([12]; Diflufenican 50 g ai/ha alone): 0
MATCH Obs ([13]; Diflufenican 50 g ai/ha alone): 0
LAMPU Obs ([14]; Diflufenican 50 g ai/ha alone): 0

O=C(Nc1ccc(F)cc1)c1cccc(Oc2cccc(C(F)(F)F)c2)n1 [Picolinafen, N-(4-fluorophenyl)-6-[3-(trifluoromethyl)phenoxy]-2-pyridinecarboxamide]
KCHSC Obs ([2]; Picolinafen 50 g ai/ha alone): 20
VERPE Obs ([3]; Picolinafen 50 g ai/ha alone): 10
SASKR Obs ([4]; Picolinafen 50 g ai/ha alone): 30
HORVS Obs ([5]; Picolinafen 50 g ai/ha alone): 10
CHEAL Obs ([6]; Picolinafen 50 g ai/ha alone): 70
VIOTR Obs ([9]; Picolinafen 50 g ai/ha alone): 10
SINAR Obs ([10]; Picolinafen 50 g ai/ha alone): 70
TRZAS Obs ([11]; Picolinafen 50 g ai/ha alone): 10
CIRAR Obs ([12]; Picolinafen 50 g ai/ha alone): 15
MATCH Obs ([13]; Picolinafen 50 g ai/ha alone): 0
LAMPU Obs ([14]; Picolinafen 50 g ai/ha alone): 0
